Measurements published in patent publication US20230022157A1 (Achillion Pharmaceuticals, Inc., priority 2018, published 2023).
pIC50: −log10 of the molar value.

Biological target: T1, Human Factor D (Homo sapiens, UniProt P00746)
T1 construct: purified from human serum; purchased Complement Technology, Inc; host or cells: human serum (natural protein, not recombinant)
Experiment: Human Factor D Assay
Format: biochemical
Conditions: Human Factor D 80 nM, substrate Z-L-Lys-SBzl; Table 2; read-out: IC50 (Stars)
Method in brief: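 Serum-purified human factor D (80 nM final) preincubated 5 min at room temperature with test compound in 50 mM Tris, 1M NaCl, pH 7.5. Z-L-Lys-SBzl substrate and DTNB then added, each at 100 μM final. IC50 from nonlinear regression of reaction rate against compound concentration.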

T1 sequence (P00746 26-253): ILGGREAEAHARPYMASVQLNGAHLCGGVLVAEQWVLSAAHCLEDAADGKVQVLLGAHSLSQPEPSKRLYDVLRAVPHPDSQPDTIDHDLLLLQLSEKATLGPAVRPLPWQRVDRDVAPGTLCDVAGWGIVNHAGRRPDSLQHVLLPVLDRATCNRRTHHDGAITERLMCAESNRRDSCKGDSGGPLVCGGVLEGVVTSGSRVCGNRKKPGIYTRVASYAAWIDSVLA

Row | SMILES | pIC50
1 | CC(=O)c1cn(CC(=O)N2[C@H]3CC[C@H](C3)[C@H]2C(=O)Nc2nc(C(F)(F)F)ccc2C)c2c(C)cc(-c3cnc(C)nc3)cc12 [Compound 177, (1S,3S,4R)-2-(2-(3-acetyl-7-methyl-5-(2-methylpyrimidin-5-yl)-1H-indol-1-yl)acetyl)-N-(3-methyl-6-(trifluoromethyl)pyridin-2-yl)-2-azabicyclo[2.2.1]heptane-3-carboxamide] | > 6.00
2 | CC(=O)c1cn(CC(=O)N2[C@H]3CC[C@H](C3)[C@H]2C(=O)Nc2nc(Br)ccc2C)c2c(C)cc(-c3cnc(C)nc3)cc12 [Compound 178, (1S,3S,4R)-2-(2-(3-acetyl-7-methyl-5-(2-methylpyrimidin-5-yl)-1H-indol-1-yl)acetyl)-N-(6-bromo-3-methylpyridin-2-yl)-2-azabicyclo[2.2.1]heptane-3-carboxamide] | > 6.00
3 | CC(=O)c1nn(CC(=O)N2C[C@H](F)C[C@H]2C(=O)Nc2cccc(Br)n2)c2c(C)cc(-c3cnc(C(C)O)nc3)cc12 (stereo partly drawn) [Compound 179, (2S,4R)-1-(2-(3-acetyl-5-(2-(1-hydroxyethyl)pyrimidin-5-yl)-7-methyl-1H-indazol-1-yl)acetyl)-N-(6-bromopyridin-2-yl)-4-fluoropyrrolidine-2-carboxamide] | > 6.00
4 | CC(=O)c1nn(CC(=O)N2[C@H](C(=O)NC(C)Cc3ccco3)C[C@@]3(C)C[C@@H]23)c2c(C)cc(-c3cnc(C)nc3)cc12 (stereo partly drawn) [Compound 180, (1R,3S,5R)-2-{2-[3-acetyl-7-methyl-5-(2-methylpyrimidin-5-yl)indazol-1-yl]acetyl}-N-[1-(furan-2-yl)propan-2-yl]-5-methyl-2-azabicyclo[3.1.0]hexane-3-carboxamide] | > 6.00
5 | CC(=O)c1nn(CC(=O)N2[C@H](C(=O)NC(C)Cc3ccoc3)C[C@@]3(C)C[C@@H]23)c2c(C)cc(-c3cnc(C)nc3)cc12 (stereo partly drawn) [Compound 181, (1R,3S,5R)-2-{2-[3-acetyl-7-methyl-5-(2-methylpyrimidin-5-yl)indazol-1-yl]acetyl}-N-[1-(furan-3-yl)propan-2-yl]-5-methyl-2-azabicyclo[3.1.0]hexane-3-carboxamide] | > 6.00
6 | CC(=O)c1nn(CC(=O)N2[C@H](C(=O)NC(C)Cc3cccs3)C[C@@]3(C)C[C@@H]23)c2c(C)cc(-c3cnc(C)nc3)cc12 (stereo partly drawn) [Compound 182, (1R,3S,5R)-2-{2-[3-acetyl-7-methyl-5-(2-methylpyrimidin-5-yl)indazol-1-yl]acetyl}-5-methyl-N-[1-(thiophen-2-yl)propan-2-yl]-2-azabicyclo[3.1.0]hexane-3-carboxamide] | > 6.00
7 | CC(=O)c1nn(CC(=O)N2[C@H](C(=O)NC(C)Cc3ccsc3)C[C@@]3(C)C[C@@H]23)c2c(C)cc(-c3cnc(C)nc3)cc12 (stereo partly drawn) [Compound 183, (1R,3S,5R)-2-{2-[3-acetyl-7-methyl-5-(2-methylpyrimidin-5-yl)indazol-1-yl]acetyl}-5-methyl-N-[1-(thiophen-3-yl)propan-2-yl]-2-azabicyclo[3.1.0]hexane-3-carboxamide] | > 6.00
8 | Cc1ncc(-c2cc3c(C(N)=O)nn(CC(=O)N4[C@H](C(=O)Nc5nc(Br)c(F)cc5C)C[C@@]5(C)C[C@@H]45)c3c(CO)n2)cn1 [Compound 184, 1-(2-((1R,3S,5R)-3-((6-bromo-5-fluoro-3-methylpyridin-2-yl)carbamoyl)-5-methyl-2-azabicyclo[3.1.0]hexan-2-yl)-2-oxoethyl)-7-(hydroxymethyl)-5-(2-methylpyrimidin-5-yl)-1H-pyrazol[3,4-c]pyridine-3-carboxamide] | > 6.00
9 | CC(=O)c1nn(CC(=O)N2[C@H](C(=O)Nc3nc(Br)ccc3C)C[C@@]3(C)C[C@@H]23)c2cc(CF)c(Nc3cnc(C)nc3)cc12 [Compound 185, (1R,3S,5R)-2-(2-(3-acetyl-6-(fluoromethyl)-5-((2-methylpyrimidin-5-yl)amino)-1H-indazol-1-yl)acetyl)-N-(6-bromo-3-methylpyridin-2-yl)-5-methyl-2-azabicyclo[3.1.0]hexane-3-carboxamide] | > 6.00
10 | CC(=O)c1nn(CC(=O)N2[C@H](C(=O)NC(C)Cc3ccccc3F)C[C@@]3(C)C[C@@H]23)c2c(C)cc(-c3cnc(C)nc3)cc12 (stereo partly drawn) [Compound 186, (1R,3S,5R)-2-{2-[3-acetyl-7-methyl-5-(2-methylpyrimidin-5-yl)indazol-1-yl]acetyl}-N-[1-(2-fluorophenyl)propan-2-yl]-5-methyl-2-azabicyclo[3.1.0]hexane-3-carboxamide] | > 6.00
11 | CC(=O)c1nn(CC(=O)N2[C@H](C(=O)NC(C)Cc3cccc(F)c3)C[C@@]3(C)C[C@@H]23)c2c(C)cc(-c3cnc(C)nc3)cc12 (stereo partly drawn) [Compound 187, (1R,3S,5R)-2-{2-[3-acetyl-7-methyl-5-(2-methylpyrimidin-5-yl)indazol-1-yl]acetyl}-N-[1-(3-fluorophenyl)propan-2-yl]-5-methyl-2-azabicyclo[3.1.0]hexane-3-carboxamide] | > 6.00
12 | CC(=O)c1nn(CC(=O)N2[C@H](C(=O)NC(C)Cc3cnccn3)C[C@@]3(C)C[C@@H]23)c2c(C)cc(-c3cnc(C)nc3)cc12 (stereo partly drawn) [Compound 188, (1R,3S,5R)-2-{2-[3-acetyl-7-methyl-5-(2-methylpyrimidin-5-yl)indazol-1-yl]acetyl}-5-methyl-N-[1-(pyrazin-2-yl)propan-2-yl]-2-azabicyclo[3.1.0]hexane-3-carboxamide] | > 6.00
13 | CC(=O)c1nn(CC(=O)N2[C@H](C(=O)NC(C)c3cccnn3)C[C@@]3(C)C[C@@H]23)c2c(C)cc(-c3cnc(C)nc3)cc12 (stereo partly drawn) [Compound 189, (1R,3S,5R)-2-{2-[3-acetyl-7-methyl-5-(2-methylpyrimidin-5-yl)indazol-1-yl]acetyl}-5-methyl-N-[1-(pyridazin-3-yl)ethyl]-2-azabicyclo[3.1.0]hexane-3-carboxamide] | > 6.00
14 | CC(=O)c1nn(CC(=O)N2[C@H](C(=O)N[C@@H]3CCCC[C@@H]3C)C[C@@]3(C)C[C@@H]23)c2c(C)cc(-c3cnc(C)nc3)cc12 [Compound 190, (1R,3S,5R)-2-{2-[3-acetyl-7-methyl-5-(2-methylpyrimidin-5-yl)indazol-1-yl]acetyl}-5-methyl-N-[(1R,2S)-2-methylcyclohexyl]-2-azabicyclo[3.1.0]hexane-3-carboxamide] | > 6.00
15 | Cc1ncc(-c2cc(C)c3c(c2)c(C(C)O)cn3CC(=O)N2[C@H](C(=O)Nc3nc(Br)ccc3C)C[C@@]3(C)C[C@@H]23)cn1 (stereo partly drawn) [Compound 191, (1R,3S,5R)—N-(6-bromo-3-methylpyridin-2-yl)-2-(2-(3-(1-hydroxyethyl)-7-methyl-5-(2-methylpyrimidin-5-yl)-1H-indol-1-yl)acetyl)-5-methyl-2-azabicyclo[3.1.0]hexane-3-carboxamide] | > 6.00
16 | CC(=O)c1cn(CC(=O)N2[C@H](C(=O)Nc3cc(F)cc(Br)n3)C[C@@]3(C)C[C@@H]23)c2c(C)cc(-c3cnc(C)nc3)cc12 [Compound 192, (1R,3S,5R)-2-(2-(3-acetyl-7-methyl-5-(2-methylpyrimidin-5-yl)-1H-indol-1-yl)acetyl)-N-(6-bromo-4-fluoropyridin-2-yl)-5-methyl-2-azabicyclo[3.1.0]hexane-3-carboxamide] | > 6.00
17 | CC(=O)c1cn(CC(=O)N2[C@H](C(=O)Nc3cc(C)cc(Br)n3)C[C@@]3(C)C[C@@H]23)c2c(C)cc(-c3cnc(C)nc3)cc12 [Compound 193, (1R,3S,5R)-2-(2-(3-acetyl-7-methyl-5-(2-methylpyrimidin-5-yl)-1H-indol-1-yl)acetyl)-N-(6-bromo-4-methylpyridin-2-yl)-5-methyl-2-azabicyclo[3.1.0]hexane-3-carboxamide] | > 6.00
18 | CC(=O)c1cn(CC(=O)N2[C@H](C(=O)Nc3ccc(F)c(Br)n3)C[C@@]3(C)C[C@@H]23)c2c(C)cc(-c3cnc(C)nc3)cc12 [Compound 194, (1R,3S,5R)-2-(2-(3-acetyl-7-methyl-5-(2-methylpyrimidin-5-yl)-1H-indol-1-yl)acetyl)-N-(6-bromo-5-fluoropyridin-2-yl)-5-methyl-2-azabicyclo[3.1.0]hexane-3-carboxamide] | > 6.00
19 | CC(=O)c1cn(CC(=O)N2[C@H](C(=O)Nc3nc(Br)ccc3C)C[C@@]3(C)C[C@@H]23)c2c(C)cc(-c3cnc4cc(C5CC5)nn4c3)cc12 [Compound 195, (1R,3S,5R)-2-(2-(3-acetyl-5-(2-cyclopropylpyrazolo[1,5-a]pyrimidin-6-yl)-7-methyl-1H-indol-1-yl)acetyl)-N-(6-bromo-3-methylpyridin-2-yl)-5-methyl-2-azabicyclo[3.1.0]hexane-3-carboxamide] | > 6.00
20 | CC(=O)c1cn(CC(=O)N2[C@H](C(=O)Nc3nc(C(F)(F)F)ccc3C)C[C@@]3(C)C[C@@H]23)c2c(C)cc(-c3cnc4cc(C5CC5)nn4c3)cc12 [Compound 196, (1R,3S,5R)-2-(2-(3-acetyl-5-(2-cyclopropylpyrazolo[1,5-a]pyrimidin-6-yl)-7-methyl-1H-indol-1-yl)acetyl)-5-methyl-N-(3-methyl-6-(trifluoromethyl)pyridin-2-yl)-2-azabicyclo[3.1.0]hexane-3-carboxamide] | > 6.00
21 | CC(=O)c1cn(CC(=O)N2[C@H](C(=O)Nc3nc(Br)ccc3C)C[C@@]3(C)C[C@@H]23)c2c(C)cc(-c3cnc4cc(C)nn4c3)cc12 [Compound 198, (1R,3S,5R)-2-(2-(3-acetyl-7-methyl-5-(2-methylpyrazolo[1,5-a]pyrimidin-6-yl)-1H-indol-1-yl)acetyl)-N-(6-bromo-3-methylpyridin-2-yl)-5-methyl-2-azabicyclo[3.1.0]hexane-3-carboxamide] | > 6.00
22 | CC(=O)c1cn(CC(=O)N2[C@H](C(=O)Nc3nc(C(F)(F)F)ccc3C)C[C@@]3(C)C[C@@H]23)c2c(C)cc(-c3cnc4cc(C)nn4c3)cc12 [Compound 199, (1R,3S,5R)-2-(2-(3-acetyl-7-methyl-5-(2-methylpyrazolo[1,5-a]pyrimidin-6-yl)-1H-indol-1-yl)acetyl)-5-methyl-N-(3-methyl-6-(trifluoromethyl)pyridin-2-yl)-2-azabicyclo[3.1.0]hexane-3-carboxamide] | > 6.00
